From patent US20250313576A1, “COMPOUND FOR PHOTOO[…] AND MEDICINAL COMPOSITION CONTAINING SAME” (The University of Tokyo, priority 2021, published 2025) come the findings set out here.

In series [1] the target is T1, aggregated tau overexpressed in HEK cells (Homo sapiens, UniProt P10636).
T1 construct: expressed in transfected cells; host or cells: HEK cells (line called Fs17)
Put plainly: Intracellular photooxygenation reaction evaluated by Western blotting. It is filed as cell-based. To be noted: for crosslinked product (more than 250 kDa) of the photooxygenation reaction: 595 nm light 15 minutes. The procedure:
An intracellular oxygenation reaction by the compounds PzT, OMe, Q, and J of the present invention was performed using HEK cells in which aggregated tau was overexpressed. Specifically, 10 uM of the compound of the present invention was added to a cell medium, and then irradiated with light at 595 nm for 15 minutes. After the reaction, viable cells were collected and lysed, and then the intracellular photooxygenation reaction was evaluated by measurement with Western blotting (FIG. 2). In a case where the compound of the present invention was not added, tau was detected between 75 kDa and 100 kDa by the 5A6 antibody that is a tau specific antibody, and a theoretical molecular weight of the overexpressed tau was about 70 kDa, and therefore, the tau was identified as a monomer.
Similarly, the compounds of the present invention C2OH, O, and O2 were also subjected to an intracellular oxygenation reaction. The cells overexpressing aggregated tau were incubated with a medium containing 1 μM of the compound of the present invention for 10 minutes. Thereafter, light of 595 nm was applied for 15 minutes. Reaction progress was identified and quantified by Western blotting measurements (FIG. 3). […] As a result, it was confirmed that a crosslinked product, which is one of products of a photooxygenation reaction, was detected in a region of more than 250 kDa on the right side of the lane to which the compound was added, whereas no crosslinked body was provided under non-light irradiation conditions, that is, on the left side of each lane in all the compounds, and the reaction proceeded in a light-dependent manner.
A general note: In western blotting, separated proteins are transferred to a membrane and probed.

Series [2] in a line: UV-vis spectrum, verification of absorption wavelength. It counts as physicochemical. An excerpt:
It can be said that the longer the wavelength of light used for a living body, the lower the cytotoxicity and the better the tissue permeability.

A further series addresses T2, overexpressed tau (Homo sapiens, UniProt P10636).
T2 construct: expressed in transfected cells; host or cells: HEK cells (line called Fs17)
The series is described as follows: LC-MS/MS analysis of methionine oxidation of overexpressed tau after intracellular reaction. It is filed as cell-based. To be noted: monomeric tau, trypsin digestion, FIG. 6. The procedure:
LC-MS/MS analysis was performed on the reaction product in order to confirm the production of side chain oxygenates that were difficult to specifically detect as a result of overlapping with unreacted substances in Western blotting. Since side chain oxygenates are mainly produced by oxidation of methionine side chains to sulfoxide, it was focused on 4 methionines contained in overexpressed tau having a total length of 412 amino acids. The intracellular protein after the reaction was separated according to the molecular weight by SDS-page, monomeric tau was cut out by trypsin enzyme digestion, and LC-MS/MS measurement was performed. A ratio of the detection intensity of the methionine oxidant was calculated from the sum of the detection intensities of the methionine reductant and the oxidant obtained from MS1 in the LC-MS/MS spectrum (FIG. 6).

The mark [3] stands for this setting: 10 uM compound in cell medium, 5A6 antibody, FIG. 2.

Structures are written as SMILES.

T1 sequence (P10636 2-412 isoform P10636-7): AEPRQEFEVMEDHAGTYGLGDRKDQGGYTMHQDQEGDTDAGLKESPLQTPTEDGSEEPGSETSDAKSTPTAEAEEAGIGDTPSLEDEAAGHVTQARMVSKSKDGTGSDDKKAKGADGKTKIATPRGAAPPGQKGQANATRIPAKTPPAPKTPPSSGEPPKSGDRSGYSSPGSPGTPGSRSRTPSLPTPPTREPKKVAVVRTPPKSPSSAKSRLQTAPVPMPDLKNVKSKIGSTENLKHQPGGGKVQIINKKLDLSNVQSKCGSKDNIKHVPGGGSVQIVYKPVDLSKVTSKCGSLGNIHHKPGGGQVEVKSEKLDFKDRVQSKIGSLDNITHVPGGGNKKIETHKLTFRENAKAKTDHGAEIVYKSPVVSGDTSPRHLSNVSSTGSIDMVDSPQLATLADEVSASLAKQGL
T2 sequence (P10636 1-412 isoform P10636-7): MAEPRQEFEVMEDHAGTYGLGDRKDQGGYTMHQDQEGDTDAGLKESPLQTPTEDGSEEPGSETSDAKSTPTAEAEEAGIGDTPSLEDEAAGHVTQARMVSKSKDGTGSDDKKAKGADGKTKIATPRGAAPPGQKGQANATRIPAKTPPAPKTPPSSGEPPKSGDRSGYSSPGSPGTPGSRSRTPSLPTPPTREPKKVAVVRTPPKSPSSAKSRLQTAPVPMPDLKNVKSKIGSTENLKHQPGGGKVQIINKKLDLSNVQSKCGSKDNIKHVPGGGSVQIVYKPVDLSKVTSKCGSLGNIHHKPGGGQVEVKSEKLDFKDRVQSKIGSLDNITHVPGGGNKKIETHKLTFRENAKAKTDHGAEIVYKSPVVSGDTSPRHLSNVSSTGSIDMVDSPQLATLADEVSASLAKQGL

As for `OCCN1CCCc2cc(/C=C/C=C/c3nc4ncc(Br)nc4s3)ccc21` [Compound C2OH, 2-(6-((1E,3E)-4-(6-bromothiazolo[4,5-b]pyrazin-2-yl)butadien-1,3-dien-1-yl)-3,4-dihydroquinolin-1(2H)-yl)ethane-1-ol], the “photooxygenation activity relative to the compound Q” value in series [1] (1 μM compound, 595 nm 15 minutes, quantified by Western blotting) is given as “twice or more”. In addition, the “crosslinked product (more than 250 kDa) of the photooxygenation reaction” value (from here on “crosslinked product (more than 250 kDa)”) in series [1] (1 μM compound, 10 minutes incubation, light-dependent, FIG. 3) is reported as “detected”.
`Brc1cnc2nc(/C=C/C=C/c3cc4c5c(c3)CCCN5CCC4)sc2n1` [Compound J, 6-Bromo-2-((1E,3E)-4-(2,3,6,7-tetrahydro-1H,5H-pyrido[3,2,1-ij]quinolin-9-yl)butadien-1,3-dien-1-yl)thiazolo[4,5-b]pyrazine]: in series [1] (setting [3]), the “crosslinked product (more than 250 kDa)” value is recorded as “detected”. Also, the “λmax (nm), maximum absorption wavelength” value in series [2] is given as 508 nm.
Regarding `COc1cc(N(C)C)cc(OC)c1/C=C/C=C/c1nc2ncc(Br)nc2s1` [Compound OMe, 4-((1E,3E)-4-(6-Bromothiazolo[4,5-b]pyrazin-2-yl)butadien-1,3-dien-1-yl)-3,5-dimethoxy-N,N-dimethylaniline], in series [1] (setting [3]), the “crosslinked product (more than 250 kDa)” value is listed as “detected”. Besides, the “λmax (nm), maximum absorption wavelength” value in series [2] was found to be 495 nm.
As to `CN(C)c1ccc(/C=C/C=C/c2nc3ccc(Br)nc3s2)cc1` [Compound PT, 4-((1E,3E)-4-(5-bromothiazolo[5,4-b]pyridin-2-yl)butadien-1,3-dien-1-yl)-N,N-dimethylaniline], in series [2], the “λmax (nm), maximum absorption wavelength” value came to 437 nm.
As to `CN(C)c1ccc(/C=C/C=C/c2nc3ncc(Br)nc3s2)cc1` [Compound PzT, 4-((1E,3E)-4-(6-Bromothiazolo[4,5-b]pyrazin-2-yl)butadien-1,3-dien-1-yl)-N,N-dimethylaniline], in series [1] (setting [3]), the “crosslinked product (more than 250 kDa)” value is reported as “detected”. Further, the “λmax (nm), maximum absorption wavelength” value in series [2] is on record as 468 nm.
For `CN1CCCc2cc(/C=C/C=C/c3nc4ncc(Br)nc4s3)ccc21` [Compound Q, 6-Bromo-2-((1E,3E)-4-(1-methyl-1,2,3,4-tetrahydroquinolin-6-yl)butadiene-1,3-dien-1-yl)thiazolo[4,5-b]pyrazine], in series [1] (setting [3]), the “crosslinked product (more than 250 kDa)” value is “detected”. Also, the “oxygenation level of methionine compared with control (Vehicle)” value on overexpressed tau was “did not change”. In series [2], the “λmax (nm), maximum absorption wavelength” value is reported as 500 nm.
